Entries after “also recorded” stand apart in the source; their conditions may differ.

Experimental findings from article PMC6312359, “Diisopropylphenyl-imidazole (DII): A new compound that exerts anthelmintic activity through novel molecular mechanisms” (PLoS Neglected Tropical Diseases, 2018) are described below.

Data set [1] relates to C. elegans. The data set can be described thus: Pharyngeal pumping. Format: in vivo, Caenorhabditis elegans. The conditions noted are these: wild-type and unc-29 young adults, two hours of exposure; listed as DII. The method, then: Supplementary file pntd.0007021.s006.tif: S6 Fig DII effects on pharyngeal pumping. Wild-type and unc-29 young adult worms (24 h past L4) were transferred to bacteria-seeded NGM plates containing different DII concentrations. After two hours of DII exposure, the number of contractions in the terminal bulb of the pharynx (pumps per minute) was counted using a stereomicroscope at 50x magnification. […] Bars represent the mean ± SEM from n = 20 animals per condition. Statistical differences compared to the non-treated condition (0 μM DII) within the same strain (ns: no statistically significant p>0.05, ***p<0.001). (TIF) Click here for additional data file.

For data set [2], the system named is C. elegans. The data set can be described thus: Toxicity at early developmental stages (eggs, hatching, developmental rate). Format: in vivo, Caenorhabditis elegans. The protocol:
Briefly, gravid worms were collected and exposed to an alkaline hypochlorite solution (0.5 M NaOH and 1% NaOCl) to destroy adult worm tissues (eggs are resistant to bleach due to their chitin eggshell). Eggs were subsequently isolated with a sterile 60% sucrose solution and seeded on 35 mm NGM plates containing DII (100, 300 and 600 μM) or DMSO as a control. Hatched animals were quantified after 48 h. The results were expressed as follows: Number of living animals x 100/ Total number of eggs seeded. This experiment was independently repeated three times.
For ovicidal assessment, isolated eggs were seeded in NGM plates containing DII (600 μM) and video-recorded for 12 h. An egg was considered as non-viable if no hatching was observed during the recorded time.
The number of animals at different developmental stages (L1-L3, L4, and adults) was counted at 24, 48 and 72 h. The results were expressed as the number of animals at a given stage x 100/ Total number of living worms at that time point. This experiment was independently repeated three times.

The next data set concerns Drosophila melanogaster. The data set can be described thus: Drosophila melanogaster larval viability. The following applies: 300–1200 μM in food, about 40 h of exposure. Format: in vivo. The protocol:
All experiments were done at 25°C, under a 12:12 dark:light cycle using the w^1118 strain. Mated females were allowed to lay eggs for 4 h on apple juice egg laying plates supplemented with a thin layer of normal fly food. 2 h after the initiation of egg laying was considered time "0". 30–40 late L2 larvae (66 h after egg laying) were transferred from the plates to tubes containing 3 ml of fly food with 300, 600 and 1200 μM DII or the corresponding concentration of dimethylsulfoxide (DMSO, molecular biology grade, AppliChem). Under these conditions, larvae were exposed to DII until they left the food to pupariate about 40 h later. Larval viability was calculated as the percentage of larvae that reached the pupal stage.
To add drugs, fly food was melted and cooled to 60°C, 3 ml of food were dispensed in tubes and an appropriate volume of DMSO or drug was added and thoroughly mixed. Control tubes without DMSO and […] were prepared following the same procedure. The experiment was independently repeated at least three times.

In data set [3] the test system is C. elegans. The experiment in a line: Acute paralysis assays. Type of data set: in vivo, Caenorhabditis elegans. The conditions noted are these: 10 min. The protocol:
Acute paralysis assays were carried out in microtiter plates containing the drug dissolved in M9 buffer. […] Each drug concentration was tested in two wells (containing 30 animals each) within a single experiment. […] The experiment was independently repeated at least three times.

In a further data set the test system is HEK-293 cells. The data set can be described thus: Human cell toxicity, propidium iodide staining. Type of data set: cell-based. The method, then:
HEK-293 cells were cultured in DMEM medium (Gibco, USA) containing 10% fetal bovine serum (FBS) (Gibco, USA) and penicillin/streptomycin (Gibco, USA) at 37°C in an atmosphere containing 5% CO2. Before DII exposure, cells were dissociated using trypsin-EDTA and seeded in 96 multiwell plates at a density of 1x10^4 cells/ml. Cells were resuspended in fresh medium and different drug concentrations were subsequently added. After 8 h of incubation with 0, 200 and 600 μM of DII or 96 h of incubation with 0 and 100 μM of DII, cells were washed 3 times with PBS and propidium iodide (PI, final concentration 50 μg/ml) was added to stain dead cells. PI incubation was performed for 10 min in the dark at room temperature. DMSO (0–0.7%) and chloroquine (50–200 μM) were used as vehicle and positive controls, respectively. Images were acquired with a Nikon Eclipse TE 2000 fluorescence microscope. The number of stained cells was analyzed manually. At least 3 independent experiments were analyzed.

Data set [4] has as its system C. elegans. The experiment in a line: Larvicidal activity assays.
Experimental: Three concentrations of drugs were used (100, 300 and 600 μM) and each concentration was repeated in triplicate. After 24, 48 and 72 h alive worms were scored and the results were expressed as the percentage of living worms related to the initial number of L1 animals. This experiment was independently repeated three times.
The test system of data set [5] is C. elegans mutant strains. The experiment in a line: DII nematicidal effect on mutant strains. Format: in vivo, Caenorhabditis elegans. The protocol: To evaluate DII nematicidal effects on mutant strains two different conditions were tested: i) ~40 L4s were exposed to DII (600 μM) in NGM plates and survival was scored at 4, 8, 24, 48 and 72 h, ii) ~40 L4s were exposed to 50 μM for 96 h and survival was subsequently scored. […] At least three independent experiments were analyzed.

Data set [6] concerns C. elegans. The data set can be described thus: Recovery assays. Format: in vivo, Caenorhabditis elegans. The following applies: 600 μM, 4 and 8 h of exposure, scored 24 h later. The method, then: To evaluate the recovery capacity of worms treated with DII, ~100 L4 worms were transferred to NGM plates containing DII (600 μM). After 4 and 8 h of exposure, those animals that survived were transferred to regular NGM plates. Worm viability was scored 24 h later. Results are expressed as the percentage of alive animals 24 h after being transferred to regular NGM plates. The experiment was independently repeated three times.

Where [7] appears, read: eggs exposed to 600 μM, 24, 48 and 72 h.
[8] abbreviates: 600 μM, short exposure times, no difference after 48 h.

Regarding `CC(C)c1cccc(C(C)C)c1-n1ccnc1` [Compound 11], in the data set on C. elegans [1], the pharyngeal pumping rate result is reported as “inhibits the pharyngeal pumping; also recorded: decreases pharyngeal pumping rate”. In the data set with C. elegans [2] (600 μM, within 12 hours, video recording), this compound yielded an eggs hatched of 100%. In the data set on C. elegans [2] (setting [7]), the “developmental rate, unc-29 null mutants” value is “delays the development” and the “developmental rate, wild-type” value was “delays nematode development”. Also, the “number of viable animals relative to eggs seeded” value in the data set on C. elegans [2] (eggs exposed to 100, 300 and 600 μM, 48 h) is “significantly reduced”. Further, the “survivors that were adults” value in the data set on C. elegans [2] (eggs on DII-containing plates (600 μM), 72 h) is reported as “less than 5%”. In addition, in the data set with Drosophila melanogaster, the “larval viability (larvae that reached the pupal stage)” value is “does not affect Drosophila larval viability”. Besides, in the data set with C. elegans [3] (100 μM), the “paralysis in CB407 unc-49(e407)III hypersensitive strain” value is listed as “no paralyzing effects”. Besides, the immobilized animals with C. elegans [3] (800 μM (highest concentration tested)) was found to be 25%. Also, the “change of the dose-effect curve of levamisole by DII” value in the data set on C. elegans [3] (DII 100 and 200 μM, intact animals) is “no significant changes”. In the data set with HEK-293 cells (0–600 μM, 8 h), the cell viability result was “do not affect viability on HEK-293 cells”. Besides, in the data set on HEK-293 cells (up to 100 μM, 96 h), the cell viability entry is listed as “do not affect cell viability”. In addition, the “larvicidal effect on unc-29 null mutant larvae” value in the data set with C. elegans [4] (600 μM) is on record as “as sensitive to the larvicidal effects of DII as the wild-type strain”. Further, the “larvicidal effect on unc-38, unc-63, lev-8 and lev-1 larvae” value in the data set on C. elegans [4] (600 μM, 24, 48 and 72 h) is “sensitive to DII”. The “larval viability, wild-type L1” value in the data set with C. elegans [4] (100, 300 and 600 μM, 24, 48 and 72 h) is “significant decrease”. Further, in data set [5] (50 μM, 96 h), the “survival of unc-29 null mutant strain, long exposure” value was “resistant”. In addition, in data set [5] (600 μM, 4-72 h), the “survival of lev-8 mutants vs wild-type” value is reported as “as sensitive to DII as the wild-type” and the “survival of unc-63 mutants vs wild-type” value is reported as “as sensitive to DII as the wild-type”. Also, in data set [5] (setting [8]), the “survival of lev-1 mutants vs wild-type” value is on record as “slightly resistant” and the “survival of unc-38 mutants vs wild-type” value is “slightly resistant”. In addition, the “survival of unc-29(e1072)I null mutants vs wild-type” value in data set [5] (CB1072, 600 μM, 4-72 h, listed as DII) is reported as “extremely resistant”. In addition, the “DII-mediated death in muscle unc-29 rescue strain OAR61” value in data set [5] (myo-3::unc-29, unc-29(e1072)I, 600 μM) is “completely restores”. For the same compound, the “recovery of survivors after transfer to regular NGM plates” value in the data set with C. elegans [6] is “reversible”.
